Results taken from paper PMC3610763 (Chemical research in toxicology, 2012).

What was measured:
[1] = system: human liver microsomes
[2] = system: individual recombinant human P450 enzymes
[3] = rat, in vivo, po, 30 mg/kg; cited from earlier work
[4] = human, in vivo, po; cited from earlier work
[5] = in vivo, cited from earlier work

SMILES	formation of G3 from the analogue, versus capsaicin [1]	formation of conjugates equivalent to G1/G2 from the analogue, versus capsaicin [1]	other results
CCCCCCCCC(=O)NCc1cccc(OC)c1 [N-(3-methoxybenzyl)nonanamide]	absent	diminished	–
CCCCCCCCC(=O)NCc1ccc(O)c(OC)c1 [nonivamide, N-vanillylnonanamide]	comparable to capsaicin	unchanged	G4 and G5 formation from the analogue [1]: roughly equivalent to capsaicin
CCCCCCCCC(=O)NCc1ccc(OC)c(O)c1 [N-(3-hydroxy-4-methoxybenzyl)nonanamide]	absent	unchanged	–
CCCCCCCCC(=O)NCc1ccc(OC)c(OC)c1 [N-(3,4-dimethoxybenzyl)nonanamide]	absent	diminished	–
CCCCCCCCC(=O)NCc1ccc(O)cc1 [N-(4-hydroxybenzyl)nonanamide]	greater	increased	–
CCCCCCCCC(=O)NCc1ccccc1 [N-benzylnonanamide]	absent	diminished	–
COc1cc(CNC(=O)CCCC/C=C/C(C)C)cc(-c2cc(CNC(=O)CCCC/C=C/C(C)C)cc(OC)c2O)c1O [Dimer, 5,5’-Dicapsaicin]	–	–	P450 enzymes producing the conjugate/dimer from capsaicin [2]: CYP2D6, 2C9, and 2C8
CCCCCCCCC(=O)NCc1ccc(O)c(O)c1 [N-(3,4-dihydroxybenzyl)nonanamide]	absent	–	–
COc1cc(CNC(=O)CCCC/C=C/C(C)C)ccc1O [Capsaicin, trans-8-methyl-N-vanillyl-6-nonenamide]	–	–	absorption from the intestine [3]: 94%; amount found in intestine [3]: ~ 1,060 mg/tissue; amount found in kidney [3]: ~ 7 mg/tissue; amount found in liver [3]: ~ 45 mg/tissue; peak serum concentration [3]: 6.2 µM; AUC [4]: ~ 1.7 ng*h/mL; T1/2 [4]: 0.42 h; Tmax [4]: ~ 0.78 h; estimated T1/2 ([5]; human): 1.6 h; time within which capsaicin was cleared in most patients [5]: ≤ 4.5 h
